Where no end group is shown, it is not given here.
Tests used:
THP-1 cells = test: Generation of Factor Xa by monocytes; type: cell-based; conditions: peptides 0.5 mM
Protocol: Factor Xa generation was determined by a modification of the method of Miletich et al. (1978), J. Biol. Chem. 253: 6908-6916. THP-1 cells (ATCC; 3×10^7 /ml) resuspended in RPMI 1640 (Bio Whittaker, Walkersville, Md.) were incubated with 100 μM ADP (Sigma), 2.5 mM CaCl2, 1 or 5 μg/ml Factor X (Hematologic Technologies Inc.) and 0.5 mM peptides at room temperature. After 20 minutes, 100 μl of the reaction mixture was transferred to 37° C. and supplemented with 100 μl of bovine factor VII- and Factor X-deficient plasma (Sigma). Coagulation was initiated by adding 100 μl of 25 mM CaCl2 and the clotting time was determined. Factor Xa procoagulant activity (ng/ml) was calculated by means of a standard curve constructed by serial concentrations of Factor Xa (Hematologic Technologies Inc.) from 50 to 250 ng/ml.

CD11b/CD18 = target: T1, CD11b/CD18 (Homo sapiens, UniProt P05107+P11215); test: Downmodulation of CD11b/CD18 on macrophages; type: cell-based; conditions: wells coated with peptides 0.5 mM or mAb IB4 50 μg/ml
T1 construct: endogenous in cells; host or cells: human monocyte-derived macrophages from buffy coats
Protocol: Human monocytes were purified from buffy coats on Percoll gradients and cultured in 12.5% human serum in Teflon beakers. Macrophages were harvested from Teflon beakers after 6-8 days and suspended in HAP buffer. Terasaki wells were coated with 5 μl of peptides (0.5 mM) or anti-CD18 mAb IB4 (50 μg/ml). Control wells were coated with HAP. After 2 hours of incubation at RT, 5 μl of macrophages (5×10^5 /ml HAP) were added and allowed to spread for 45 mins. at 37° C. […] IgM-coated erythrocytes in buffer served as negative control. After washing, the number of erythrocytes bound per 100 leukocytes (adherence index) was quantitated visually under an inverted microscope.

[1] = system: rats inoculated intracisternally with Haemophilus influenzae type b lipooligosaccharide; test: Rat meningitis model (H. influenzae LOS); type: in vivo
Protocol: The experiments were performed according to established protocols (Wispelway et al., 1988, J. Clin. Invest., 82: 1339-1346). Purified Haemophilus influenzae type b strain DL42 lipooligosaccharide (LOS) was prepared for inoculation by sonication for 30 minutes, dilution to the desired concentration (20 ng/50 μl) in normal saline or PBS, and sonication for an additional 15 to 30 minutes just prior to use.
Briefly, anesthetized female Wistar rats were placed under a micromanipulator and inoculated intracisternally with a 25 gauge needle. After removal of 50 μl of CSF (without visible blood contamination), rats were inoculated intracisternally with 50 μl (20 ng) of LOS using a 1 ml syringe with a 25 gauge needle. Ten to fifteen minutes after inoculation with LOS, the rats were treated by intravenous administration of the test substance: a solution of an FHA peptide in PBS, a solution of a control peptide in PBS, or an equal volume of PBS alone.
Three hours after LOS inoculation, 5 μCi of ^125 I-radiolabelled albumin in 50 μl normal saline was administered intravenously. One hour later, CSF was collected via intracisternal puncture and blood samples were collected via intracardiac puncture. CSF leukocytosis was determined by manually counting white blood cells using a hemacytometer, and blood-brain barrier permeability was determined as the percent of radioactivity in whole blood that was present in the CSF. Blood samples were obtained immediately prior to inoculation, immediately prior to treatment, and at 4 hours post-inoculation for determination of peripheral white blood cell concentrations.

Human neutrophils = test: Binding of 125I-Factor X to neutrophils; conditions: read-out: IC50 of inhibition of 125I-Factor X binding
Protocol: Human Factor X (Sigma or Hematologic Technologies Inc.) was labeled with ^125 I using Iodogen (Pierce Chemical Co.) Human neutrophils were isolated from heparinized blood according to the manufacturer's specification using Neutrophil Isolation Medium (Cardinal Associates, Santa Fe, N.M.) and washed three times with 5 mM EDTA-phosphate-buffered saline (PBS), pH 7.2, at 4° C. To eliminate platelet contamination,neutrophils were incubated with autologous serum containing 5 mM EDTA for 30 mins. at 37° C., washed three times with ice-cold PBS, pH 7.2, and resuspended in RPMI 1640 tissue culture medium (Whittaker M. A. Bioproducts, Walkersville, Md.) at 4° C. Binding of ^125 I-Factor X to neutrophils was measured based on a method described by Altieri et al. (1991) Science 254: 1200-1202. Briefly, 200 μl of neutrophils (1.5×10^7 /ml) were supplemented with 17.5 μl of 50 mM CaCl2, stimulated with 3.5 μl of 100 μM NH2 -formyl-Met-Leu-Phe (Sigma), and mixed with 30 μl of 10.3 μg/ml ^125 I-Factor X and 100 μl of 1.75 mM of peptide. Buffer alone and a peptide of scrambled sequence served as controls in each of the 3 experiments. After incubation for 20 mins. at room temperature, neutrophil-bound ^125 I-Factor X was separated from unbound ^125 I-Factor X by centrifugation of 300 μl aliquots through 50 μl of a mixture of Hi phenyl silicone oil DC 550 and methyl silicone oil DC 200 5:1 (Nye Inc. Specialty Lubricants, New Bedford, Mass.) at 12,000×g for 2 mins. Aliquots of the supernatant (cell free ^125 I-Factor X) and the cell pellet (cell bound ^125 I-Factor X) were counted in a gamma-counter. Nonspecific binding (~50,000 cpm) was determined by adding a 100 fold excess of unlabeled Factor X, and subtracted from total radioactivity (~500,000 cpm for controls).

[2] = 50% rabbit plasma at 37° C.
Protocol: To determine the stability of the FHA II peptide, the unmodified or the acetylated-amidated peptide were incubated in 50% rabbit plasma at 37° C.

T1 sequence (P05107 23-769, other chains not shown): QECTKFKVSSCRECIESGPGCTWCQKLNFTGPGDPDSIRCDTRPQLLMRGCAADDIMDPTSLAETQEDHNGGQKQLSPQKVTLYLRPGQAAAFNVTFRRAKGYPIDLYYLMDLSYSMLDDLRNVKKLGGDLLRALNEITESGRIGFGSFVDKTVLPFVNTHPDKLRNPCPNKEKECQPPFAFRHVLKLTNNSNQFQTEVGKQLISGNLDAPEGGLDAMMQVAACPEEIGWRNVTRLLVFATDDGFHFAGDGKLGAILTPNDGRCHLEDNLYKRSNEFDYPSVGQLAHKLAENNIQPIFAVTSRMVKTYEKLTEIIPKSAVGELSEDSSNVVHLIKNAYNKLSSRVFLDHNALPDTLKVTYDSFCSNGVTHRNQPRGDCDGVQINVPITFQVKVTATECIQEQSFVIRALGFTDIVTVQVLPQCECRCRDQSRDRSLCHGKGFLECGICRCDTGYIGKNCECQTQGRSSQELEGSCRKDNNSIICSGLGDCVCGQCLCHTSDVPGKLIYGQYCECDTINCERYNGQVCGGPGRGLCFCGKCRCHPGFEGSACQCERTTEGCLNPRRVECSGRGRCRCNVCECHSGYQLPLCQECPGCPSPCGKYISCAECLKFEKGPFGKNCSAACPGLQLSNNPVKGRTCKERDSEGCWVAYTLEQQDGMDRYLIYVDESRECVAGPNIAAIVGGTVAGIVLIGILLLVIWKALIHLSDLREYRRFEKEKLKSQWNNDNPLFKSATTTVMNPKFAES

CC(=O)N[C@@H](CC(C)C)C(=O)N[C@@H](CC(C)C)C(=O)N[C@H](C=O)CCCNC(=N)N [Leupeptin, reference compound]
Clotting time (THP-1 cells): 63.0 ± 4.0 s
Factor Xa (THP-1 cells; from standard curve): < 10.0 ng/mL

AADPHQGVLAQGDIIMDAKG [FHA Cc]
reduction of binding of C3bi-coated erythrocytes to macrophages (CD11b/CD18): no significant effect

Ac-VEEDTKG-NH2 [scrambled ac/am FHA II, VEEDTKG, reference compound]
BBB permeability ([1]; Experiment #3, 600 nmol): 7.74 ± 3.59%
Leukocytosis ([1]; Experiment #3, 600 nmol i.v., CSF 4 hours after LOS): 14,287 ± 10,199 cells/ml

ETKEVDG [FHA II, ETKEVDG]
IC50 (Human neutrophils): 10 µM
time in which concentration decreased by half [2]: 4 to 6 h

GTLLLRNDALTENGTVTISA [FHA Cd]
reduction of binding of C3bi-coated erythrocytes to macrophages (CD11b/CD18): no significant effect

GYDTKQEDG [Factor X II, reference compound]
IC50 (Human neutrophils): 500 µM

RADPHQGVLAQGDIIMDAKG [FHA Cb]
reduction of binding of C3bi-coated erythrocytes to macrophages (CD11b/CD18): no significant effect

RGDPHQGVLAQGDIIMDAKG [FHA Ca]
reduction of binding of C3bi-coated erythrocytes to macrophages (CD11b/CD18): 61±7%
neutropenia ([1]; peripheral white blood cells): No neutropenia was observed

— patent publication US5932217A, “Peptides which inhibit adhesion between leukocytes and endothelial cells” (priority 1994, dated 1999)
